From the supplement of paper PMC4862054

system: MDA-MB-231; test: normalised viability (% of control), CellTiter-Blue; higher = more viable cells (about 100 = DMSO control); details: 10 nM; incubation time: 72 h
Method in brief: (§1)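 Seeded at 20 µl suspension per well onto compound-loaded 384-well plates, breast cancer cell lines were incubated 72 h. CellTiter-Blue fluorescence at 560/590 nm was then read, with each plate normalised to vehicle (100) and a positive kill control (0). Normalised viability is reported at a single listed concentration of the series.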

| Compound | normalised viability [%] |
| --- | --- |
| Nc1nc(Cl)nc2c1ncn2[C@@H]1O[C@H](CO)[C@@H](O)[C@@H]1F [Clofarabine] | 89.1 |
| CCN(CC)CCOc1ccc(C(=C(Cl)c2ccccc2)c2ccccc2)cc1 [Clomifene] | 98.8 |
| C[C@@H]1C[C@H]2[C@@H]3CCC4=CC(=O)C=C[C@]4(C)[C@@]3(F)[C@@H](O)C[C@]2(C)[C@@]1(O)C(=O)CO [Dexamethasone] | 125 |
| CC(C)C(=O)Nc1ccc([N+](=O)[O-])c(C(F)(F)F)c1 [Flutamide] | 93.7 |
| O=NN(CCCl)C(=O)NC1CCCCC1 [Lomustine] | 110 |

same assay, conditions: 100 nM; incubation time: 72 h

| Compound | normalised viability [%] |
| --- | --- |
| COc1cc2c(Oc3ccc(NC(=O)C4(C(=O)Nc5ccc(F)cc5)CC4)cc3F)ccnc2cc1OCCCN1CCOCC1 [Foretinib] | 113 |
| NC(=O)NO [Hydroxyurea] | 113 |
| O=C(O)CC[C@H]1CC[C@@](c2cc(F)ccc2F)(S(=O)(=O)c2ccc(Cl)cc2)CC1 [MK-0752] | 92.5 |

same assay, conditions: 1000 nM; incubation time: 72 h

| Compound | normalised viability [%] |
| --- | --- |
| Nc1nc(Cl)nc2c1ncn2[C@@H]1O[C@H](CO)[C@@H](O)[C@@H]1F [Clofarabine] | 64.4 |
| CCN(CC)CCOc1ccc(C(=C(Cl)c2ccccc2)c2ccccc2)cc1 [Clomifene] | 93.8 |
| C[C@@H]1C[C@H]2[C@@H]3CCC4=CC(=O)C=C[C@]4(C)[C@@]3(F)[C@@H](O)C[C@]2(C)[C@@]1(O)C(=O)CO [Dexamethasone] | 111 |
| CC(C)C(=O)Nc1ccc([N+](=O)[O-])c(C(F)(F)F)c1 [Flutamide] | 99.5 |
| COc1cc2c(Oc3ccc(NC(=O)C4(C(=O)Nc5ccc(F)cc5)CC4)cc3F)ccnc2cc1OCCCN1CCOCC1 [Foretinib] | 50.6 |
| O=NN(CCCl)C(=O)NC1CCCCC1 [Lomustine] | 100 |
| O=C(O)CC[C@H]1CC[C@@](c2cc(F)ccc2F)(S(=O)(=O)c2ccc(Cl)cc2)CC1 [MK-0752] | 89.7 |

same assay, conditions: 10000 nM; incubation time: 72 h

| Compound | normalised viability [%] |
| --- | --- |
| Nc1nc(Cl)nc2c1ncn2[C@@H]1O[C@H](CO)[C@@H](O)[C@@H]1F [Clofarabine] | 57.8 |
| CCN(CC)CCOc1ccc(C(=C(Cl)c2ccccc2)c2ccccc2)cc1 [Clomifene] | 14.1 |
| C[C@@H]1C[C@H]2[C@@H]3CCC4=CC(=O)C=C[C@]4(C)[C@@]3(F)[C@@H](O)C[C@]2(C)[C@@]1(O)C(=O)CO [Dexamethasone] | 146 |
| CC(C)C(=O)Nc1ccc([N+](=O)[O-])c(C(F)(F)F)c1 [Flutamide] | 102 |
| NC(=O)NO [Hydroxyurea] | 98.8 |
| O=NN(CCCl)C(=O)NC1CCCCC1 [Lomustine] | 95.9 |

same assay, conditions: 100000 nM; incubation time: 72 h

| Compound | normalised viability [%] |
| --- | --- |
| NC(=O)NO [Hydroxyurea] | 93.2 |

system: MDA-MB-436; test: as above; details: 1 nM; incubation time: 72 h
Method in brief: as §1

| Compound | normalised viability [%] |
| --- | --- |
| COc1cc2c(Oc3ccc(NC(=O)C4(C(=O)Nc5ccc(F)cc5)CC4)cc3F)ccnc2cc1OCCCN1CCOCC1 [Foretinib] | 132 |
| O=C(O)CC[C@H]1CC[C@@](c2cc(F)ccc2F)(S(=O)(=O)c2ccc(Cl)cc2)CC1 [MK-0752] | 109 |

same assay, conditions: 10 nM; incubation time: 72 h

| Compound | normalised viability [%] |
| --- | --- |
| Nc1nc(Cl)nc2c1ncn2[C@@H]1O[C@H](CO)[C@@H](O)[C@@H]1F [Clofarabine] | 109 |
| CCN(CC)CCOc1ccc(C(=C(Cl)c2ccccc2)c2ccccc2)cc1 [Clomifene] | 119 |
| C[C@@H]1C[C@H]2[C@@H]3CCC4=CC(=O)C=C[C@]4(C)[C@@]3(F)[C@@H](O)C[C@]2(C)[C@@]1(O)C(=O)CO [Dexamethasone] | 127 |
| CC(C)C(=O)Nc1ccc([N+](=O)[O-])c(C(F)(F)F)c1 [Flutamide] | 91.5 |
| O=NN(CCCl)C(=O)NC1CCCCC1 [Lomustine] | 108 |

same assay, conditions: 100 nM; incubation time: 72 h

| Compound | normalised viability [%] |
| --- | --- |
| COc1cc2c(Oc3ccc(NC(=O)C4(C(=O)Nc5ccc(F)cc5)CC4)cc3F)ccnc2cc1OCCCN1CCOCC1 [Foretinib] | 77.8 |
| NC(=O)NO [Hydroxyurea] | 99.4 |
| O=C(O)CC[C@H]1CC[C@@](c2cc(F)ccc2F)(S(=O)(=O)c2ccc(Cl)cc2)CC1 [MK-0752] | 92.2 |

same assay, conditions: 1000 nM; incubation time: 72 h

| Compound | normalised viability [%] |
| --- | --- |
| Nc1nc(Cl)nc2c1ncn2[C@@H]1O[C@H](CO)[C@@H](O)[C@@H]1F [Clofarabine] | 47.6 |
| CCN(CC)CCOc1ccc(C(=C(Cl)c2ccccc2)c2ccccc2)cc1 [Clomifene] | 109 |
| C[C@@H]1C[C@H]2[C@@H]3CCC4=CC(=O)C=C[C@]4(C)[C@@]3(F)[C@@H](O)C[C@]2(C)[C@@]1(O)C(=O)CO [Dexamethasone] | 89.6 |
| CC(C)C(=O)Nc1ccc([N+](=O)[O-])c(C(F)(F)F)c1 [Flutamide] | 95.4 |
| COc1cc2c(Oc3ccc(NC(=O)C4(C(=O)Nc5ccc(F)cc5)CC4)cc3F)ccnc2cc1OCCCN1CCOCC1 [Foretinib] | 84 |
| O=NN(CCCl)C(=O)NC1CCCCC1 [Lomustine] | 95.5 |
| O=C(O)CC[C@H]1CC[C@@](c2cc(F)ccc2F)(S(=O)(=O)c2ccc(Cl)cc2)CC1 [MK-0752] | 111 |

same assay, conditions: 10000 nM; incubation time: 72 h

| Compound | normalised viability [%] |
| --- | --- |
| Nc1nc(Cl)nc2c1ncn2[C@@H]1O[C@H](CO)[C@@H](O)[C@@H]1F [Clofarabine] | 56 |
| CCN(CC)CCOc1ccc(C(=C(Cl)c2ccccc2)c2ccccc2)cc1 [Clomifene] | 27.5 |
| C[C@@H]1C[C@H]2[C@@H]3CCC4=CC(=O)C=C[C@]4(C)[C@@]3(F)[C@@H](O)C[C@]2(C)[C@@]1(O)C(=O)CO [Dexamethasone] | 104 |
| CC(C)C(=O)Nc1ccc([N+](=O)[O-])c(C(F)(F)F)c1 [Flutamide] | 91.6 |
| NC(=O)NO [Hydroxyurea] | 89.4 |
| O=NN(CCCl)C(=O)NC1CCCCC1 [Lomustine] | 97.7 |

same assay, conditions: 100000 nM; incubation time: 72 h

| Compound | normalised viability [%] |
| --- | --- |
| NC(=O)NO [Hydroxyurea] | 102 |

system: MDA-MB-453; test: as above; details: 0.3 nM; incubation time: 72 h
Method in brief: as §1

| Compound | normalised viability [%] |
| --- | --- |
| COc1cc2c(Oc3ccc(NC(=O)C4(C(=O)Nc5ccc(F)cc5)CC4)cc3F)ccnc2cc1OCCCN1CCOCC1 [Foretinib] | 115 |
| O=C(O)CC[C@H]1CC[C@@](c2cc(F)ccc2F)(S(=O)(=O)c2ccc(Cl)cc2)CC1 [MK-0752] | 113 |

same assay, conditions: 3 nM; incubation time: 72 h

| Compound | normalised viability [%] |
| --- | --- |
| Nc1nc(Cl)nc2c1ncn2[C@@H]1O[C@H](CO)[C@@H](O)[C@@H]1F [Clofarabine] | 102 |
| CCN(CC)CCOc1ccc(C(=C(Cl)c2ccccc2)c2ccccc2)cc1 [Clomifene] | 116 |
| C[C@@H]1C[C@H]2[C@@H]3CCC4=CC(=O)C=C[C@]4(C)[C@@]3(F)[C@@H](O)C[C@]2(C)[C@@]1(O)C(=O)CO [Dexamethasone] | 110 |
| CC(C)C(=O)Nc1ccc([N+](=O)[O-])c(C(F)(F)F)c1 [Flutamide] | 123 |
| COc1cc2c(Oc3ccc(NC(=O)C4(C(=O)Nc5ccc(F)cc5)CC4)cc3F)ccnc2cc1OCCCN1CCOCC1 [Foretinib] | 91.6 |
| O=NN(CCCl)C(=O)NC1CCCCC1 [Lomustine] | 120 |
| O=C(O)CC[C@H]1CC[C@@](c2cc(F)ccc2F)(S(=O)(=O)c2ccc(Cl)cc2)CC1 [MK-0752] | 107 |

same assay, conditions: 10 nM; incubation time: 72 h

| Compound | normalised viability [%] |
| --- | --- |
| COc1cc2c(Oc3ccc(NC(=O)C4(C(=O)Nc5ccc(F)cc5)CC4)cc3F)ccnc2cc1OCCCN1CCOCC1 [Foretinib] | 85.9 |
| O=C(O)CC[C@H]1CC[C@@](c2cc(F)ccc2F)(S(=O)(=O)c2ccc(Cl)cc2)CC1 [MK-0752] | 125 |

same assay, conditions: 30 nM; incubation time: 72 h

| Compound | normalised viability [%] |
| --- | --- |
| Nc1nc(Cl)nc2c1ncn2[C@@H]1O[C@H](CO)[C@@H](O)[C@@H]1F [Clofarabine] | 105 |
